The record followed here is the METLIN SMRT retention time set (Domingo-Almenara et al. 2019).

The structures appear in SMILES notation.

This data set can be described thus: gradient 5% acetonitrile 3 min, to 50% in 2 min, to 85% in 15 min, held 3 min, 100 µL/min. As to conditions: column: Zorbax Extend-C18 2.1 x 50 mm; eluents: water / acetonitrile, 0.1% formic acid. In a few lines: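 Data were gathered over 3 months by HPLC coupled to a quadrupole time-of-flight mass spectrometer, operated in positive and negative ionization mode. Mixtures of ~100 pure standards ran on a Zorbax Extend-C18 column (2.1 × 50 mm, 1.8 μm) at 100 μL/min, with water and acetonitrile each containing 0.1% formic acid and dead and dwell volumes of 40 μL and 900 μL. Retention time was read from adduct peaks picked by computer and checked manually.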
As to `NC(=O)C1(N2CCCCC2)CCN(C(=O)c2cc3ccc4cccnc4c3[nH]2)CC1`, the RP-LC retention time was 574 s.

Regarding `O=S(=O)(c1ccccc1)c1[nH]c(-c2ccccc2)nc1SCc1ccncc1`, the RP-LC retention time was determined as 651 s.

`CCCNC(=O)N1CCCCCC1CN1CCOCC1` (stereo not drawn) showed an RP-LC retention time of 580 s.

Take `CCCNC(=O)C1CCCN(c2ccc(SCC(=O)Nc3ccc(C(=O)OC)cc3)nn2)C1` (stereo not drawn): the RP-LC retention time is 672 s.

For `O=C(c1cnn(-c2ccccc2)n1)N1CCCC(COCc2ccccc2)C1` (stereo not drawn), the RP-LC retention time is 1110 s.

Take `COc1ccc(-c2cn3cccnc3n2)cc1NS(=O)(=O)c1ccc(Br)cc1`: the RP-LC retention time was determined as 721 s.

Turning to `Cc1cc(NC(=O)N2CCC(n3c(C)nc4cccnc43)CC2)ccc1Br`, the RP-LC retention time was found to be 706 s.

Turning to `O=C(NC1CCCCCC1)c1csc(-c2ccc(N3CCOCC3)nc2)n1`, the RP-LC retention time worked out at 991 s.

`O=C(NC1CCN(Cc2ccccc2)CC1)C1CCCN(c2ncnc3c2oc2ccccc23)C1` (stereo not drawn) showed an RP-LC retention time of 604 s.

For the compound `Cc1cccnc1NC(=O)c1c[nH]c2c(C(F)(F)F)cccc2c1=O`, the RP-LC retention time was 573 s.

For `Cc1cccc(NC(=O)Cn2c(=O)n(-c3ccccc3)c(=O)c3c2cc(C)n3C)c1`, the RP-LC retention time worked out at 831 s.

In the case of `O=C(NCCn1c(=O)n(Cc2ccc(F)cc2)c2cccnc21)C1CC1`, the RP-LC retention time amounted to 711 s.

`CCS(=O)(=O)c1nc2ccc(NS(=O)(=O)c3ccc(F)cc3Cl)cc2s1`: the RP-LC retention time turned out to be 890 s.

The compound `O=C(CCC(=O)N1CCCC1c1nc2ccccc2s1)N1CCN(c2ccccc2)CC1` (stereo not drawn) yielded an RP-LC retention time of 812 s.

Compound `Fc1ccc(-c2ccc(CNC3CN4CCC3CC4)o2)cc1` (stereo not drawn) yielded an RP-LC retention time of 558 s.

Turning to `O=C(Nc1cccn2c(C3CCC3)nnc12)c1ccc2c(c1)OCO2`, the RP-LC retention time came out at 744 s.

For the compound `COc1ccc(-n2c(CSc3ncccn3)nnc2SCC(=O)NO)cc1`, the RP-LC retention time was determined as 592 s.

The compound `COc1ccc(CNS(=O)(=O)c2ccccc2-c2nc(-c3ccc(F)cc3)no2)cc1` displayed an RP-LC retention time of 1160 s.

Compound `O=C(Cn1cnc2cc3c(cc21)OCCO3)Nc1cccc(C(F)(F)F)c1` gave an RP-LC retention time of 697 s.

Turning to `Cc1cc(NC(=O)Nc2ccc3c(ccn3C)c2)sn1`, the RP-LC retention time turned out to be 736 s.

The compound `COC(=O)CNC(=O)NCC(=O)N1CCc2ccccc21` yielded an RP-LC retention time of 647 s.

`CC(=O)c1cccc(NC(=O)COc2ccccc2-c2nnc(-c3ccccc3)o2)c1`: the RP-LC retention time was 1190 s.

With `O=C1CCN(C(=O)C2CCN(C(=O)CCC3CCCC3)CC2)CCCCCCN1`, the RP-LC retention time came to 725 s.

The compound `O=C(CSc1nccc(-c2ccc3c(c2)OCO3)n1)N1CCOCC1` yielded an RP-LC retention time of 690 s.

Regarding `COc1cc(CSc2nc(CC(=O)Nc3nccs3)cs2)cc(OC)c1`, the RP-LC retention time was determined as 819 s.

In the case of `O=C1COc2ccc(Cl)cc2N1Cc1nc(-c2ccc3c(c2)OCO3)no1`, the RP-LC retention time is 1040 s.

In the case of `COc1cccc(-n2cc(C(=O)OCC(=O)OC(C)(C)C)c3ccccc3c2=O)c1`, the RP-LC retention time is 1140 s.

For the compound `CCc1nc2c(NC(=O)c3ccccc3C(F)(F)F)cccn2n1`, the RP-LC retention time was determined as 866 s.

With `O=C(N[C@H]1C[C@@H]2C[C@H]1N(C(=O)CSc1ccccc1)C2)c1ccccc1`, the RP-LC retention time is 786 s.

`COc1ccc(C(O)CN2CCN(C3CCCCC3)CC2)cc1OC` (stereo not drawn) registered an RP-LC retention time of 541 s.

The compound `Cc1ccc(-c2noc(Cn3ccn(-c4cccc(Cl)c4)c(=O)c3=O)n2)cc1` gave an RP-LC retention time of 920 s.

Consider `O=[N+]([O-])c1ccccc1S(=O)(=O)Nc1cccc(-c2ccc(N3CCOCC3)nn2)c1`, for which the RP-LC retention time came out at 646 s.

For the compound `CC(C)(C)C(O)CCNC(=O)c1ccc(C(F)(F)F)cc1` (stereo not drawn), the RP-LC retention time was 813 s.
